# Reference: patent US12583839B2, “PD-L1 antagonist compound” (ADLAI NORTYE BIOPHARMA CO., LTD., priority 2019, dated 2026)
# Target: T1, PD-1/PD-L1 (Homo sapiens, UniProt Q9NZQ7)
# T1 construct: 60535 (PD-1/NFAT-Reporter-Jurkat); host or cells: CHO cells expressing PD-L1; Jurkat cells expressing PD-1
# Test: Detection of biological activity of PD-1/PD-L1 signaling inhibition at the cellular level (NFAT luciferase reporter, PD-1/NFAT-Reporter-Jurkat cells co-cultured with TCR activator/PD-L1-CHO cells)
# Format: cell-based
# Settings: PD-1/NFAT-Reporter-Jurkat + TCR activator/PD-L1-CHO co-culture, 6 hours; Atezolizumab as positive control
# Text: Detection of Biological Activity of PD-1/PD-L1 Signaling Inhibition at the Cellular Level
# This detection method is used for evaluating the biological activity of the compounds described in the present invention at the cellular level.
# This detection method uses the luciferase reporter gene method to detect the biological activity of the compound on the inhibition of PD-1/PD-L1 signal at the cellular level. PD-1/NFAT—Reporter—Jurkat cells stably express human PD-1 and express the luciferase reporter gene regulated by NFAT elements; TCR activator/PD-L1-CHO cells stably express human PD-L1 and TCR activator elements. When the two cell lines were co-cultured, the binding of PD-1/PD-L1 inhibited the TCR signaling pathway, thereby inhibiting the expression of the downstream NFAT-controlled luciferase reporter gene. When PD-1/PD-L1 antibody or inhibitor is added, this inhibitory effect is reversed and luciferase is expressed, so that the effect of PD-1/PD-L1 inhibitor on luciferase activity can be detected.
# PD-1/NFAT—Reporter—Jurkat cell (Cat: 60535) and TCR activator/PD-L1-CHO cell (Cat: 60536) were purchased from BPS Bioscience. Anti-human PD-L1 antibody (Atezolizumab, Cat: A2004) was purchased from Selleck; luciferase reporter gene expression detection kit (ONE-Glo™ Luciferase Assay System, Cat: E6120) was purchased from Promega; multifunction plate reader (SpectraMax i3x) was purchased from Molecular Devices.
# The PD-1/NFAT—Reporter—Jurkat cells and TCR activator/PD-L1-CHO cells were cultured according to the routine cell culture protocol.
# TCR activator/PD-L1-CHO cells were harvested and seeded into a 96-well culture plate at 35,000 cells/well in a medium volume of 100 μl and incubated overnight at 37° C. The next day, the medium was discarded, compound was added and incubated for 30 minutes, while a solvent control (dimethyl sulfoxide, DMSO, final concentration of 0.1%) and PD-L1 antibody (Atezolizumab, final concentration of about 10 nM) as positive controls were set. PD-1/NFAT-reporter-Jurkat cells were then added. After culturing for 6 hours, the luciferase activity was detected according to the instructions of the luciferase detection reagent.
# Using PD-L1 antibody as a positive control, calculate the inhibition rate of PD-1/PD-L1 binding of the test compound (%)=(chemiluminescence value of compound treated wells/average value of chemiluminescence value of solvent control wells−1)/(average value of chemiluminescence value of PD-L1 antibody well/average value of chemiluminescence value of solvent control well−1)×100%.
# According to the above detection method, the compounds of the present invention were evaluated for their biological activity at the cellular level, and the activity results are shown in the following table.
# T1 sequence (Q9NZQ7 19-290): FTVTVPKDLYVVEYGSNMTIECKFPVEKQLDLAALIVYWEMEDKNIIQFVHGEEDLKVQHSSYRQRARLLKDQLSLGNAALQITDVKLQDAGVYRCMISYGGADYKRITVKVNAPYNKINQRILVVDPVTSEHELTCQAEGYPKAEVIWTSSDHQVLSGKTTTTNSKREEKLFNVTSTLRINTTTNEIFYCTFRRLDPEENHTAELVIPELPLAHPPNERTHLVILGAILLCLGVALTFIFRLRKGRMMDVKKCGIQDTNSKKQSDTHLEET
row,Structure (SMILES),EC50
1,COc1cc(Cn2ncc3c(-c4cccc(-c5cc(Cl)c(CNC[C@@H]6CCC(=O)N6)c(OC)c5)c4Cl)cccc32)c(Cl)cc1CN(C)CC1CCC(C(=O)O)CC1 (stereo partly drawn) [Compound 155],145 nM
2,COc1cc(Cn2ncc3c(-c4cccc(-c5ccc(CNC[C@@H]6CCC(=O)N6)c(OC)n5)c4C)cccc32)c(Cl)cc1CN(C)C12CCC(C(=O)O)(CC1)CC2 [Compound 164],105 nM
3,COc1cc(-c2cccc(-c3cccc4c3cnn4Cc3cc(OC)c(CN(CC4CC4)[C@H]4CC[C@H](C(=O)O)CC4)cc3Cl)c2Cl)ccc1CNC[C@@H]1CCC(=O)N1 [Compound 126],103 nM
4,CN(Cc1cc(Cl)c(Cn2ncc3c(-c4cccc(-c5ccc(CNC[C@@H]6CCC(=O)N6)cc5)c4Cl)cccc32)cc1OCc1cncc(C#N)c1)[C@@H](CO)C(=O)O [Compound 26],86 nM
5,N#Cc1cncc(COc2cc(Cn3ncc4c(-c5cccc(-c6ccc(CNCCO)cc6)c5Cl)cccc43)c(Cl)cc2CN[C@@H](CO)C(=O)O)c1 [Compound 5],58 nM
6,COc1cc(Cn2ncc3c(-c4cccc(-c5ccc(CNC[C@@H]6CCC(=O)N6)cc5)c4Cl)cccc32)c(N)cc1CN[C@@H](CO)C(=O)O [Compound 89],1110 nM
7,COc1cc(-c2cccc(-c3cccc4c3cnn4Cc3cc(OC(C)C)c(CN(C)CC4CCC(C(=O)O)CC4)cc3Cl)c2Cl)ccc1CNC[C@@H]1CCC(=O)N1 (stereo partly drawn) [Compound 110],495 nM
8,COc1cc(Cn2ncc3c(-c4cccc(-c5ccc(CNC[C@@H]6CCC(=O)N6)cc5)c4Cl)cccc32)c(Cl)cc1CN1CCC(C(=O)O)CC1 [Compound 37],977 nM
9,CN(CCO[C@H]1CCOC1)Cc1ccc(-c2cccc(-c3cccc4c3cnn4Cc3cc(OCc4cncc(C#N)c4)c(CN[C@@H](CO)C(=O)O)cc3Cl)c2Cl)cc1 [Compound 6],228 nM
10,COc1cc(Cn2ncc3c(-c4cccc(-c5ccc(CNC[C@@H]6CCC(=O)N6)c(OC)n5)c4Cl)cccc32)c(Cl)cc1CN(C)[C@H]1CC[C@H](C(=O)O)CC1 [Compound 152],56 nM
11,N#Cc1cncc(COc2cc(Cn3ncc4c(-c5cccc(-c6ccc(CNC[C@@H]7CCC(=O)N7)cc6)c5Cl)cccc43)c(Cl)cc2CN2CCC[C@H]2C(=O)O)c1 [Compound 25],128 nM
12,COc1cc(-c2cccc(-c3cccc4c3cnn4Cc3cc(OC)c(CN(Cc4ccccc4)[C@H]4CC[C@H](C(=O)O)CC4)cc3Cl)c2Cl)ccc1CNC[C@@H]1CCC(=O)N1 [Compound 125],680 nM
13,COc1nc(-c2cccc(-c3cccc4c3cnn4Cc3nc(OC)c(CN(C)C45CCC(C(=O)O)(CC4)CC5)cc3Cl)c2C)ccc1CNC[C@@H]1CCC(=O)N1 [Compound 169],59 nM
14,COc1cc(Cn2ncc3c(-c4cccc(-c5ccc(CNC[C@@H]6CCC(=O)N6)cc5)c4Cl)cccc32)c(Cl)cc1CNCC1CCC(C(=O)O)CC1 (stereo partly drawn) [Compound 39],298 nM
15,COc1cc(-c2cccc(-c3cccc4c3cnn4Cc3cc(OC)c(CN(C)C4CCC(/C=C/C(=O)O)CC4)cc3Cl)c2Cl)ccc1CNC[C@@H]1CCC(=O)N1 (stereo partly drawn) [Compound 120],32 nM
16,COc1cc(Cn2ncc3c(-c4cccc(-c5ccc(CN6CC[C@@H](C(=O)O)C6)c(OC)c5)c4Cl)cccc32)c(Cl)cc1CN1CC[C@@H](O)C1 [Compound 71],693 nM
17,COc1cc(-c2cccc(-c3cccc4c3cnn4Cc3nc(OC)c(CN(C)C45CCC(C(=O)O)(CC4)CC5)cc3Cl)c2C)cc(F)c1CNC[C@@H]1CCC(=O)N1 [Compound 166],49 nM
18,COc1cc(Cn2ncc3c(-c4cccc(-c5ccc(CN6CC[C@@H](O)C6)cc5)c4Cl)cccc32)c(Cl)cc1CNC[C@H]1CC[C@H](C(=O)O)CC1 [Compound 63],950 nM
19,COc1cc(-c2cccc(-c3cccc4c3cnn4Cc3cc(OCC(=O)O)c(CN(C)C[C@H]4CC[C@H](C(=O)O)CC4)cc3Cl)c2Cl)ccc1CNC[C@@H]1CCC(=O)N1 [Compound 128],391 nM
20,COc1cc(Cn2ncc3c(-c4cccc(-c5cc(F)c(CNC[C@@H]6CCC(=O)N6)c(OC)c5)c4Cl)cccc32)c(C(F)(F)F)cc1CN(C)[C@H]1CC[C@H](C(=O)O)CC1 [Compound 148],34 nM
21,COc1cc(-c2cccc(-c3cccc4c3cnn4Cc3cc(OCc4cncc(C#N)c4)c(CN[C@@H](CO)C(=O)O)cc3Cl)c2Cl)ccc1CNC[C@@H]1CCC(=O)N1 [Compound 8],31 nM

row,Structure (SMILES),EC50
1,COc1cc(Cn2ncc3c(-c4cccc(-c5ccc(CNC[C@@H]6CCC(=O)N6)cc5)c4Cl)cccc32)c(Cl)cc1CN1CCC[C@@H](C(=O)O)C1 [Compound 35],859 nM
2,COc1cc(-c2cccc(-c3cccc4c3cnn4Cc3cc(OC)c(CN(C)[C@H]4CC[C@H](C(=O)O)CC4)cc3Cl)c2Cl)ccc1CNC[C@@H]1CCC(=O)N1 [Compound 57],38 nM
3,COc1cc(Cn2ncc3c(-c4cccc(-c5ccc(CNC[C@@H]6CCC(=O)N6)cc5)c4Cl)cccc32)c([N+](=O)[O-])cc1CN[C@@H](CO)C(=O)O [Compound 76],49 nM
4,COc1cc(Cn2ncc3c(-c4cccc(-c5ccc(CNC[C@@H]6CCC(=O)N6)cc5)c4Cl)cccc32)c(Cl)cc1CN1CC[C@@H](C(=O)O)C1 [Compound 33],511 nM
5,COc1cc(-c2cccc(-c3cccc4c3cnn4Cc3cc(OC)c(CN(C)CC4CCC(CC(=O)O)CC4)cc3Cl)c2Cl)ccc1CNC[C@@H]1CCC(=O)N1 (stereo partly drawn) [Compound 118],53 nM
6,COc1cc(Cn2ncc3c(-c4cccc(-c5cc(F)c(CNC[C@@H]6CCC(=O)N6)c(OC)c5)c4Cl)cccc32)c([N+](=O)[O-])cc1CN(C)C12CCC(C(=O)O)(CC1)CC2 [Compound 145],51 nM
7,COc1cc(-c2cccc(-c3cccc4c3cnn4Cc3cc(OC)c(CN4CC[C@@H](C(=O)O)C4)cc3Cl)c2Cl)ccc1CN1CC[C@@H](O)C1 [Compound 87],692 nM
8,COc1cc(Cn2ncc3c(-c4cccc(-c5cc(F)c(CNC[C@@H]6CCC(=O)N6)c(OC)c5)c4Cl)cccc32)c(Cl)cc1CN(C)[C@H]1C[C@H](C(=O)O)C1 [Compound 113],15 nM
9,COc1cc(Cn2ncc3c(-c4cccc(-c5ccc(CN6CC[C@@H](C(=O)O)C6)c(OC)c5)c4Cl)cccc32)c(Cl)cc1CNC[C@@H]1CCC(=O)N1 [Compound 70],222 nM
10,CN1C(=O)CC[C@H]1CNCc1ccc(-c2cccc(-c3cccc4c3cnn4Cc3cc(OCc4cncc(C#N)c4)c(CN[C@@H](CO)C(=O)O)cc3Cl)c2Cl)cc1 [Compound 7],161 nM
11,COc1cc(Cn2ncc3c(-c4cccc(-c5cc(F)c(CNC[C@@H]6CCC(=O)N6)c(OC)c5)c4Cl)cccc32)c(C#N)cc1CN(C)[C@H]1CC[C@H](CC(=O)O)CC1 [Compound 141],40 nM
12,COc1cc(Cn2ncc3c(-c4cccc(-c5ccc(CNC[C@@H]6CCC(=O)N6)cc5)c4Cl)cccc32)c(Cl)cc1CNC1CCC(C(=O)O)CC1 (stereo partly drawn) [Compound 41],295 nM
13,COc1cc(Cn2nc(F)c3c(-c4cccc(-c5ccc(CNC[C@@H]6CCC(=O)N6)cc5)c4Cl)cccc32)c(Cl)cc1CN[C@@H](CO)C(=O)O [Compound 83],92 nM
14,COc1cc(Cn2ncc3c(-c4cccc(-c5ccc(CNC[C@@H]6CCC(=O)N6)cc5)c4Cl)cccc32)c(Cl)cc1CNC[C@H](O)CC(=O)O [Compound 31],82 nM
15,COc1cc(-c2cccc(-c3cccc4c3cnn4Cc3cc(OC)c(CN[C@H]4CC[C@@H](C(=O)O)CC4)cc3Cl)c2Cl)ccc1CNC[C@@H]1CCC(=O)N1 [Compound 59],37 nM
16,COc1cc(Cn2ncc3c(-c4cccc(-c5cc(F)c(CNC[C@@H]6CCC(=O)N6)c(OC)c5)c4Cl)cccc32)c(C(F)(F)F)cc1CN(C)[C@H]1C[C@H](C(=O)O)C1 [Compound 149],28 nM
17,COc1cc(Cn2ncc3c(-c4cccc(-c5cc(F)c(CNC[C@@H]6CCC(=O)N6)c(OC)c5)c4Cl)cccc32)c(Cl)cc1CN(C)C12CC(C(=O)O)(C1)C2 [Compound 136],240 nM
18,COc1cc(Cn2ncc3c(-c4cccc(-c5cc(F)c(CNC[C@@H]6CCC(=O)N6)c(OC)c5)c4Cl)cccc32)c(Cl)cc1CN(C)C12CCC(CC(=O)O)(CC1)CC2 [Compound 160],46 nM
19,COc1cc(-c2cccc(-c3ccc(Cl)c4c3cnn4Cc3cc(OC)c(CN[C@@H](CO)C(=O)O)cc3Cl)c2Cl)ccc1CNC[C@@H]1CCC(=O)N1 [Compound 158],1010 nM
20,COc1cc(Cn2ncc3c(-c4cccc(-c5ccc(CNC[C@@H]6CCC(=O)N6)cc5)c4Cl)cccc32)c(Cl)cc1CN1C[C@H](O)C[C@H]1C(=O)O [Compound 42],348 nM
21,COc1cc(-c2cccc(-c3cccc4c3cnn4Cc3cc(OC)c(CNC[C@@H]4CCC(=O)N4)cc3Cl)c2Cl)ccc1CNC[C@@H]1CCC(=O)N1 [Compound 58],69 nM
